One experiment relates to NIH3T3 cells. Put plainly: Intracellular ROS increased by UVA irradiation, DCFH-DA/FACS. Type of experiment: cell-based, mouse. The note with it: 8 J/cm^2 UVA, peptide 10, 50, 100 μM, 24 hours after irradiation, FIG. 3A. As to the method:
(§1) First, NIH3T3 cells and HaCaT cells were seeded in a 6-well plate at a cell density of 5×10^5 cell/well, respectively, and then the cells were cultured in DMEM medium containing 10% fetal bovine serum (FBS) for 24 hours. The cultured cells were washed once with serum free DMEM medium, and then the peptide of the present invention was mixed in 1 mL of the serum free DMEM medium at each of concentrations of 10, 50, and 100 μM, and dispensed into the cells. A positive control (PC) was treated with 50 μM of Trolox instead of the above peptide.
(§2) The cells were cultured in a CO2 incubator at 37° C. for 1 hour. The medium of the cultured cells was transferred to a tube, 1 ml of PBS was added, and then the NIH3T3 cells were irradiated with 8 J/cm^2 of UVA and the HaCaT cells were irradiated with 15 mJ/cm^2 of UVB using a UV irradiator (VILBER LOURMAT, Cat No.: 3102-BSU, France). After removing PBS, 900 μL of the medium transferred to the tube was dispensed, and culture was performed in a CO2 incubator at 37° C. for 24 hours. After treatment with 10 μM of dichloro-dihydro-fluorescein diacetate (DCFH-DA), wrapping with a foil was performed, and culture was performed in a CO2 incubator at 37° C. for 30 minutes. […] After centrifugation, the cells were washed with PBS, and a fluorescence value was measured through FACS.

The subject of the next experiment is HaCaT cells. Put plainly: Intracellular ROS increased by UVB irradiation, DCFH-DA/FACS. Type of experiment: cell-based. As to conditions: 15 mJ/cm^2 UVB, peptide 10, 50, 100 μM, 24 hours after irradiation, FIG. 3B. As to the method:
as §1, §2

Experiment [1] concerns MMP-1. Put plainly: MMP-1 expression increased by UV in keratinocytes, western blot. Type of experiment: cell-based. As to conditions: HaCaT cells, 15 mJ/cm^2 UVB, peptide 10, 50, 100 μM, 24 hours after irradiation; FIG. 5B. As to the method: (§3) First, NIH3T3 cells and HaCaT cells were seeded in a 6-well plate at a cell density of 5×10^5 cell/well, respectively, and then the cells were cultured in DMEM medium containing 10% fetal bovine serum (FBS) for 24 hours. The cultured cells were washed once with serum free DMEM medium, and the peptide of the present invention was mixed in 1 mL of the serum free DMEM medium at each of concentrations of 10, 50, and 100 μM, and dispensed into the cells. A positive control (PC) was treated with 25 and 50 µM of Trolox instead of the above peptide.
(§4) The cells were cultured in a CO2 incubator at 37° C. for 1 hour. The medium of the cultured cells was transferred to a tube (e-tube), 1 ml of PBS was added, and then the NIH3T3 cells were irradiated with 6 J/cm^2 of UVA and the HaCaT cells were irradiated with 15 mJ/cm^2 of UVB using a UV irradiator (VILBER LOURMAT, Cat No.: 3102-BSU, France). After removing PBS, 900 μL of the medium transferred to the tube was added, and culture was performed in a CO2 incubator at 37° C. for 24 hours. The medium of the cultured cells was transferred to a tube, the cells were washed twice with PBS, and then a cell lysis buffer was added to lyse the cells. A sample was prepared by treating the cells with 5× sample buffer, and then SDS-PAGE was performed using 10% SDS-PAGE gel. The proteins isolated through SDS-PAGE were transferred to a PVDF membrane. […]

The test system of a further experiment is MMP-2. Put plainly: MMP-2 activity increased by UV in fibroblasts, gelatin zymography. It is filed as cell-based, mouse. The note with it: fibroblasts (NIH3T3), 6 J/cm^2 UVA, peptide 10, 50, 100 μM, 6 hours after irradiation; FIG. 6A.
The subject of another experiment is Col1a1. The experiment is described as follows: Col1a1 (collagen) gene expression in fibroblasts, RT-PCR. Type of experiment: cell-based, mouse. The note with it: NIH3T3 cells, peptide 10, 50, 100 μM, 24 hours, serum free DMEM; FIGS. 1A, 1B. The protocol: (§5) First, NIH3T3 cells (mouse fibroblast cell line) were seeded in a 6-well plate at a cell density of 3×10^5 cell/well, and then the cells were cultured in DMEM medium containing 10% fetal bovine serum (FBS) for 24 hours. The cultured cells were washed once with serum free DMEM medium, and the peptide of the present invention was mixed in 1 mL of the serum free DMEM medium at each of concentrations of 10, 50, and 100 μM, and dispensed into the cells. A positive control (PC) was treated with 5 ng/ml of TGF-B instead of the above peptide. The cells were cultured in a CO: incubator at 37° C. for 24 hours.
(§6) The cultured cells were washed twice with PBS, and RNA was extracted from the cells using easy blue (iNtRON, Cat. No.: 17061, Korea). The amount of RNA extracted was quantified, 1, 000 ng of RNA was added per tube, and RT reaction was performed using a kit (enzynomics, Cat. No.: PT200, Korea). RT-PCR was performed using a PCR kit (enzynomics, Cat. No.: P581T, Korea). The sequences of the primers of collagen, fibronectin, and elastin used in RT-PCR and the sequence of the primer of GAPDH used to compare the total RNA amount of each treatment group are shown in [Table 2].

Experiment [2] deals with fibronectin. Put plainly: Fibronectin gene expression decreased by UV in fibroblasts, RT-PCR. Type of experiment: cell-based, mouse. The note with it: NIH3T3 cells, 6 J/cm^2 UVA, peptide 10, 50, 100 μM, 6 hours after irradiation; FIGS. 4A, 4C. The protocol:
as §1, with “First, NIH3T3 cells were” for “First, NIH3T3 cells and HaCaT cells were”, “5×10^5 cell/well, and then” for “5×10^5 cell/well, respectively, and then”, “treated with 2.5 mM of N-acetylcysteine or 50 μM” for “treated with 50 μM”, “above peptide. The cells were cultured in a CO: incubator at 37° C. for 1 hour.” for “above peptide.”
(§7) The medium of the cultured cells was transferred to a tube (e-tube), 1 ml of PBS was added, and irradiation was performed with 6 J/cm^2 of UVA using a UV irradiator (VILBER LOURMAT, Cat No.: 3102-BSU, France). After removing PBS, 900 μL of the medium transferred to the tube was dispensed, and culture was performed in a CO2 incubator at 37° C. for 6 hours. The cultured cells were washed twice with PBS, and then RNA was extracted from the cells using easy blue (iNtRON, Cat. No.: 17061, Korea). The amount of RNA extracted was quantified, 1,000 ng of RNA was added per tube, and RT reaction was performed using a kit (enzynomics, Cat. No.: RT200, Korea). Thereafter, RT-PCR was performed using a PCR kit (enzynomics, Cat. No.: R581T, Korea). […]

The test system of experiment [3] is fibronectin. The experiment is described as follows: Fibronectin gene expression in fibroblasts, RT-PCR. The note with it: NIH3T3 cells, peptide 10, 50, 100 μM, 24 hours, serum free DMEM; FIGS. 1A, 1C. It is filed as cell-based, mouse. The protocol: as §5, §6
The test system of another experiment is AQP3. Put plainly: AQP3 gene expression in keratinocytes, RT-PCR. Type of experiment: cell-based. As to conditions: HaCaT cells, peptide 10, 50, 100 μM, 24 hours; FIGS. 2A, 2B. As to the method:
(§8) First, HaCaT cells were seeded in a 6-well plate at a cell density of 3×10^5 cell/well, and then the cells were cultured in DMEM medium containing 10% fetal bovine serum (FBS) for 24 hours. The cultured cells were washed once with serum free DMEM medium, and then the peptide of the present invention was mixed in 1 mL of the serum free DMEM medium at each of concentrations of 10, 50, and 100 μM, and dispensed into the cells. A positive control (PC) was treated with 100 nM of EGF instead of the above peptide. The cells were cultured in a CO: incubator at 37° C. for 24 hours.
(§9) The cultured cells were washed twice with PBS, and then RNA was extracted from the cells using easy blue (iNtRON, Cat. No.: 17061, Korea). The extracted RNA was subjected to RT reaction using a kit (enzynomics, Cat. No.: RT200, Korea). Thereafter, RT-PCR was performed using a PCR kit (enzynomics, Cat. No.: R581T, Korea). The sequences of the primers of AQP3 and SIRT1 used in RT-PCR and the sequence of the primer of GAPDH used to compare the total RNA amount of each treatment group are shown in [Table 2].

For experiment [4], the system named is MMP-1. The experiment is described as follows: MMP-1 expression increased by UV in fibroblasts, western blot. It is filed as cell-based, mouse. The note with it: NIH3T3 cells, 6 J/cm^2 UVA, peptide 10, 50, 100 μM, 24 hours after irradiation; FIG. 5A. As to the method: as §3, §4
For orientation: In western blotting, separated proteins are transferred to a membrane and probed.

Another experiment deals with Colla1. The experiment is described as follows: Col1a1 gene expression decreased by UV in fibroblasts, RT-PCR. Type of experiment: cell-based, mouse. As to conditions: NIH3T3 cells, 6 J/cm^2 UVA, peptide 10, 50, 100 μM, 6 hours after irradiation; FIGS. 4A, 4B. The protocol:
as §1, with “First, NIH3T3 cells were” for “First, NIH3T3 cells and HaCaT cells were”, “5×10^5 cell/well, and then” for “5×10^5 cell/well, respectively, and then”, “treated with 2.5 mM of N-acetylcysteine or 50 μM” for “treated with 50 μM”, “above peptide. The cells were cultured in a CO: incubator at 37° C. for 1 hour.” for “above peptide.”
as §7

For a further experiment, the system named is elastin. Put plainly: Elastin gene expression in fibroblasts, RT-PCR. As to conditions: NIH3T3 cells, peptide 10, 50, 100 μM, 24 hours, serum free DMEM; FIGS. 1A, 1D. Type of experiment: cell-based, mouse. The protocol: as §5, §6
A further experiment relates to SIRT1. The experiment is described as follows: SIRT1 gene expression in keratinocytes, RT-PCR. Type of experiment: cell-based. The note with it: HaCaT cells, peptide 10, 50, 100 μM, 24 hours; FIGS. 2A, 2C. The protocol: as §8, §9
A further experiment has as its system MMP-9. The experiment is described as follows: MMP-9 activity increased by UV in keratinocytes, gelatin zymography. Type of experiment: cell-based. The note with it: keratinocytes (HaCaT), 15 mJ/cm^2 UVB, peptide 10, 50, 100 μM, 6 hours after irradiation; FIG. 6B.

The values that follow come from patent publication US20240409584A1, “PEPTIDE HAVING ANTI-AGING ACTIVITY, AND USE THEREOF” (CAREGEN CO., LTD., priority 2021, published 2024).

Take DSSPLRSPSYAS [SEQ ID NO: 1]: the “intracellular reactive oxygen species level increased by UV irradiation” value in the experiment on NIH3T3 cells and with HaCaT cells was “decreased” throughout. For the same sequence, the “expression of MMP-1 increased by UV irradiation” value with MMP-1 [1] and in the experiment on MMP-1 [4] was “inhibited” throughout. Moreover, the “activity of MMP-2 protein increased by ultraviolet rays” value with MMP-2 is reported as “inhibited”. The “expression of the collagen gene” value in the experiment on Col1a1 is listed as “gradually increased as a concentration of the peptide increased”. For the same sequence, the “mRNA level of fibronectin decreased by UV irradiation” value in the experiment with fibronectin [2] was “increased again”. Also, in the experiment on fibronectin [3], the “expression of the fibronectin gene” value is “gradually increased as a concentration of the peptide increased”. Also, in the experiment on AQP3, the “mRNA level of AQP3” value is recorded as “increased”. In addition, in the experiment on Colla1, the “mRNA level of Colla1 decreased by UV irradiation” value is “increased again”. Besides, the “expression of the elastin gene” value with elastin is listed as “gradually increased as a concentration of the peptide increased”. Also, the “mRNA level of SIRT1” value in the experiment with SIRT1 was “increased”. In the experiment with MMP-9, the “activity of MMP-9 protein increased by ultraviolet rays” value was “inhibited”.
